Experimental data: patent US7384931B2, “Constrained compounds as CGRP-receptor antagonists” (Bristol-Myers Squibb Company, priority 2004, dated 2008)

Experiments:
[1] = target: T1, CGRP receptor (Homo sapiens, UniProt O60894+Q16602); assay: CGRP radioligand binding assay ([125I]-CGRP displacement, SK-N-MC homogenate); set-up: endogenous in cells; host or cells: SK-N-MC cells (homogenate/membrane pellet); details: displacement of [125I]-CGRP, room temperature 2 h
In short: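 SK-N-MC cell homogenate (5 μg/well) was incubated 2 h at room temperature with [125I]-CGRP (diluted to 60 pM before addition) in 50 mM Tris-Cl pH 7.5, 5 mM MgCl2, 0.005% Triton X-100 plus protease inhibitors. Bound radioactivity was collected by filtration; 1 μM beta-CGRP defined non-specific binding. IC50 is 50% radioligand displacement.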

[2] = target: T1, CGRP receptor; assay: Cyclic AMP functional antagonism assay in SK-N-MC cells; type: cell-based; set-up: SK—N-MC cells that endogenously express the human CGRP receptor; endogenous in cells; host or cells: SK-N-MC cells; details: inhibition of 0.3 nM CGRP-induced cyclic AMP formation, 15 min pre-incubation, read-out: cAMP Function IC50
Protocol: Cyclic AMP Functional Antagonism Assay. Antagonism of the compounds of invention was determined by measuring the formation of cyclic AMP (adenosine 3′5′-cyclic monophosphate) in SK—N-MC cells that endogenously express the human CGRP receptor. CGRP receptor complex is coupled with Gs protein and CGRP binding to this complex leads to the cyclic AMP production via Gs—dependent activation of an adenylate cyclase (Juaneda C et al., TiPS, 2000; 21:432-438; incorporated by reference herein). Consequently, CGRP receptor antagonists inhibit CGRP—induced cyclic AMP formation in SK—N-MC cells (Doods H et al., Br J Pharmacol, 2000; 129(3):420-423); incorporated by reference herein). For cyclic AMP measurements SK—N-MC cells were incubated with 0.3 nM CGRP alone or in the presence of various concentrations of the compounds of invention for 30 min at room temperature. Compounds of invention were pre-incubated with SK—N-MC cells for 15 min before the addition of CGRP to allow receptor occupancy (Edvinsson et al., Eur J Pharmacol, 2001, 415:39-44; incorporated by reference herein). Cyclic AMP was extracted using the lysis reagent and its concentration was determined by radioimmunoassay using RPA559 cAMP SPA Direct Screening Assay Kit (Amersham Pharmacia Biotech). IC50 values were calculated using Excel fit.

T1 sequence (Q16602 23-461): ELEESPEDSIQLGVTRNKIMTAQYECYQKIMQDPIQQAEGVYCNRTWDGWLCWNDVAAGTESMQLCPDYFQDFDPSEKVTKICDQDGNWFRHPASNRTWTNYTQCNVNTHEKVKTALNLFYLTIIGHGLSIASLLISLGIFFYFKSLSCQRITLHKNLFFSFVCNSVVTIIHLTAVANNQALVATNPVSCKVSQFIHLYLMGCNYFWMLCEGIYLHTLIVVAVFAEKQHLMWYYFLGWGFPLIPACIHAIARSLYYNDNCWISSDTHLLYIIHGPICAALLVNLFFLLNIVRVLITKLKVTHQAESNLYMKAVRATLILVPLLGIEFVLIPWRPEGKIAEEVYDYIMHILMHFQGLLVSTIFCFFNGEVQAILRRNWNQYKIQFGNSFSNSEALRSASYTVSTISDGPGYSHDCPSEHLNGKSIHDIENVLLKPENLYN
T1 sequence (O60894 27-148): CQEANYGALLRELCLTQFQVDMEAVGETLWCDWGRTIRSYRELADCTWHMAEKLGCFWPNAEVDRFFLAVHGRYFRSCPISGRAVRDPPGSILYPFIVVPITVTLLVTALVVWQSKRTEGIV

Compound: O=C(C[C@@H]1Cc2cc(Cl)c3[nH]ncc3c2CN(Cc2ccncc2)C1=O)N1CCC(c2cc3ccccc3[nH]c2=O)CC1 [Example 52, (S)-4-Chloro-7-(2-oxo-2-(4-(2-oxo-1,2-dihydroquinolin-3-yl)piperidin-1-yl)ethyl)-9-(pyridin-4-ylmethyl)-6,7,9,10-tetrahydroazepino[3,4-e]indazol-8(3H)-one]
- IC50 [1]: 0.1 to 10 nM
- IC50 [2]: 0.1 to 10 nM

Compound: O=C(C[C@@H]1Cc2cc(Cl)c3[nH]ncc3c2CN(Cc2ccncc2)C1=O)N1CCC(n2cc(-c3ccccc3)[nH]c2=O)CC1 [Example 53, (S)-4-Chloro-7-(2-oxo-2-(4-(2-oxo-4-phenyl-2,3-dihydroimidazol-1-yl)piperidin-1-yl)ethyl)-9-(pyridin-4-ylmethyl)-6,7,9,10-tetrahydroazepino[3,4-e]indazol-8(3H)-one]
- IC50 [1]: 0.1 to 10 nM
- IC50 [2]: 0.1 to 10 nM

Compound: O=C(C[C@@H]1Cc2cc(Cl)c3[nH]ncc3c2CN(Cc2ncc[nH]2)C1=O)N1CCC(N2Cc3ccccc3NC2=O)CC1 [Example 54, (S)-9-((1H-Imidazol-2-yl)methyl)-4-chloro-7-(2-oxo-2-(4-(2-oxo-1,2-dihydroquinazolin-3(4H)-yl)piperidin-1-yl)ethyl)-6,7,9,10-tetrahydroazepino[3,4-e]indazol-8(3H)-one]
- IC50 [1]: 0.1 to 10 nM
- IC50 [2]: 0.1 to 10 nM

Compound: CC(C)(C)CN1Cc2c(cc(Cl)c3[nH]ncc23)C[C@@H](CC(=O)N2CCC(c3cc4cnccc4[nH]c3=O)CC2)C1=O [Example 80, 1-[[(7S)-4-chloro-9-(2,2-dimethylpropyl)-3,6,7,8,9,10-hexahydro-8-oxoazepino[3,4-e]indazol-7-yl]acetyl]-4-(1,2-dihydro-2-oxo-1,6-naphthyridin-3-yl)-piperidine]
- IC50 [1]: 10 to 100 nM
- IC50 [2]: 10 to 100 nM

Compound: O=C(C[C@@H]1Cc2cc(Cl)c3[nH]ncc3c2CN(Cc2ccncc2)C1=O)N1CCC(c2cc3ccccc3cn2)CC1 [Example 85, (S)-4-chloro-7-(2-(4-(isoquinolin-3-yl)piperidin-1-yl)-2-oxoethyl)-9-(pyridin-4-ylmethyl)-6,7,9,10-tetrahydroazepino[3,4-e]indazol-8(3H)-one]
- IC50 [1]: 10 to 100 nM
- IC50 [2]: 10 to 100 nM
